Reference: article PMC12916490 (Molecular Psychiatry, 2025)

Assays:
[1] = system: Human; parameters: method as in ref 48 (PiHKAL: A Chemical Love Story); settings: ref 48 (PiHKAL: A Chemical Love Story); cited from earlier work
[2] = target: T1, hDAT (Homo sapiens, UniProt Q01959); assay: Radioligand binding, hDAT ([3H]WIN35,428)
T1 construct: expressed in transfected cells; host or cells: HEK 293 cells (membrane preparation)
Protocol: Binding affinities at human monoamine receptors and transporters were assessed as previously reported. A detailed description of the methodology is provided in the Supplementary information.
The IC50 values from the radioligand binding assays were determined by nonlinear regression, using three independent concentration-response curves fitted to a one-site model. The Cheng-Prusoff equation was used to calculate Kᵢ values for the competing ligands. EC50 values were determined by applying nonlinear regression to concentration-response curves. Bias factors (β) were calculated based on the relative intrinsic activity approach. More detailed information can be found in the Supplementary information. Mean values for total number of HTR, change in body temperature from pre to post session (Δ°C), and total distance traveled (cm) for each drug dose were compared (p < 0.05) via Welch’s ANOVA with Dunnett’s T3 post test, comparing all doses to respective vehicle controls (0 mg/kg). Welch’s ANOVA with Dunnett’s T3 post test was also used to compare drug concentrations, but the data were compared to DOM in this case. Dose–response relationships for HTR and locomotor activities were plotted using bell-shaped curve fits, while temperature change data were plotted using four-parameter non-linear regression curve fits. The ascending phase of the HTR curve for each drug was used to determine ED50 potency values from four parameter non-linear regression fits. For combined DOM and DOAM administration, the plasma, brain tissue, and brain dialysate drug concentrations were compared using paired t-tests (p < 0.05).
3.1 Assessment of receptor and transporter binding affinities
Membrane preparations were prepared from cells transfected with the respective target. The membrane preparations were then incubated with selective radioligands at concentrations equal to the corresponding Kd and displacement of the ligand by the drugs was measured. The difference between total binding and nonspecific binding (determined in the presence of selective competitors) was defined as specific binding of the radioligand to the target receptor. The following transfected cell lines were used for the binding assays: HEK 293 cells (h5-HT1A, h5-HT2A, h5-HT2B, h5-HT2C, and hD2 receptors, hDAT, hNET, and hSERT), Chinese hamster ovary cells (hα 1A receptor), and Chinese hamster lung cells (hα 2A receptor).
3.1.1 Membrane preparations for receptor and transporter binding
For producing membrane preparations, transfected cells were harvested with trypsin/EDTA, washed with ice-cold phosphate buffered saline, and then pelleted by centrifugation (210 × g for 5 min at 4 °C). The pellets were frozen and stored at -80 °C until use. Frozen pellets were resuspended in 20 m L (receptor binding) or 400 m L (transporter binding) buffer (20 mM HEPES -NaOH, 10 mM EDTA, pH 7.4), and homogenized at 1,100 × g for 20 s (receptor binding) or 560 × g for 15 s (transporter binding); the homogenates were then centrifuged at 48,000 × g for 30 min at 4 °C. For receptor binding assays, the supernatants were discarded and the pellets were resuspended in 20 mL buffer (20 mM HEPES-NaOH, 0.1 mM EDTA, pH 7.4) and homogenized at 1 ,100 × g for 20 s. Centrifugation and discarding of the supernatant were repeated once, and the final pellet was then resuspended in buffer and homogenized.
3.1.2 Serotonin 5-HT1A and 5-HT2A receptor binding
Competitive binding at the h5-HT1A and h5-HT2A receptor was determined using 0.90 nM [ 3H]8-hydroxy-2-(di-n-propylamine)tetralin ([ 3H]8-OH-DPAT; h5-HT1A receptor agonist) and 0.40 nM [3H]ketanserin (h5-HT2 receptor antagonist) as radioligands. […]
binding of the radioligands was defined as difference between total binding (binding buffer alone) and nonspecific binding determined in the presence of 10 μM pindolol (h5-HT1A receptor antagonist) or 10 μM spiperone (h 5-HT2A receptor antagonist).

[3] = target: T2, hTAAR1 (Homo sapiens, UniProt Q96RJ0); assay: Functional activity at human TAAR1 (cAMP); type: cell-based; settings: for Emax: mean (95% CI), β-phenylethylamine as maximal response, read-out: hTAAR1 Activation efficacy Emax
T2 construct: expressed in transfected cells
T2 sequence (Q96RJ0 1-339): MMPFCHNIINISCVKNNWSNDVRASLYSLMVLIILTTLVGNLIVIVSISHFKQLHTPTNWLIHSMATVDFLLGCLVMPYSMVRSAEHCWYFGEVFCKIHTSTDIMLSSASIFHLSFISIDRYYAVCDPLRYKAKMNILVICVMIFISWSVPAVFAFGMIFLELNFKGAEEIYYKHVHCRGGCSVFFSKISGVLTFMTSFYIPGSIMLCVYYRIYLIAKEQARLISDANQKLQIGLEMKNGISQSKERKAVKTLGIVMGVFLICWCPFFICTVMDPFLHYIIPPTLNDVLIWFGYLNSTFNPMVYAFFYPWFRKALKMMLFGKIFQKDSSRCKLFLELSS
Protocol: Activity at the human trace amine-associated receptor 1 (hTAAR1) was determined as previously described. More information can be found in the Supplementary information.
Then, the obtained RA values were used to calculate the bias factor (β) for each pathway combination. […]
pathway 1 over pathway 2. Brown-Forsythe and Welch ANOVA analyses were applied to estimate the statistical probability that β is different from zero.
3.3 Functional activity at the human TAAR1 […]
receptor 1 (hTAAR1) were generated by transfection with Lipofectamine 2000 (Invitrogen, Zug, Switzerland). The cells were harvested and pelleted by centrifugation at 900 rpm for 3 min at room temperature. The supernatant was then removed, and the cell pellet was resuspended in fresh culture medium. The cells were plated into 96 -well plates (100 μL, containing 80,000 cells per well) and incubated […]
The culture medium was removed, and the cells were washed once with 50 μL phosphate buffered saline without Ca2+ and Mg2+. Thereafter, 90 μL of Krebs -Ringer bicarbonate buffer (Sigma- […]
to 10 μM cAMP) was included on each plate. In addition, a reference plate containing RO5256390, β-phenylethylamine, and p-tyramine was included in each experiment. Test compound solution, β-phenylethylamine (as maximal response), or basal control were added at a volume of 30 μL, and the cells […]
Afterwards, the cells were lysed with 50 μL of detection mix solution […]
under heavy shaking. Fluorescence was then measured.
3.4 Plasma and brain tissue analysis
3.4.1 Analytical standards […]
to spike blank plasma or tissue homogenate at calibration standards of 1, 2.5, 5, 10, 25, 50, 100, 250, and […]
Extraction was performed by protein precipitation with 150 µL of acetonitrile added to 50 µL plasma in a 2-mL centrifuge tube. The samples were then vortexed for 10 s and shaken for 3 min at […]

[4] = hDAT Ki, mean (95% CI), HEK 293 membranes

T1 sequence (Q01959 whole entry): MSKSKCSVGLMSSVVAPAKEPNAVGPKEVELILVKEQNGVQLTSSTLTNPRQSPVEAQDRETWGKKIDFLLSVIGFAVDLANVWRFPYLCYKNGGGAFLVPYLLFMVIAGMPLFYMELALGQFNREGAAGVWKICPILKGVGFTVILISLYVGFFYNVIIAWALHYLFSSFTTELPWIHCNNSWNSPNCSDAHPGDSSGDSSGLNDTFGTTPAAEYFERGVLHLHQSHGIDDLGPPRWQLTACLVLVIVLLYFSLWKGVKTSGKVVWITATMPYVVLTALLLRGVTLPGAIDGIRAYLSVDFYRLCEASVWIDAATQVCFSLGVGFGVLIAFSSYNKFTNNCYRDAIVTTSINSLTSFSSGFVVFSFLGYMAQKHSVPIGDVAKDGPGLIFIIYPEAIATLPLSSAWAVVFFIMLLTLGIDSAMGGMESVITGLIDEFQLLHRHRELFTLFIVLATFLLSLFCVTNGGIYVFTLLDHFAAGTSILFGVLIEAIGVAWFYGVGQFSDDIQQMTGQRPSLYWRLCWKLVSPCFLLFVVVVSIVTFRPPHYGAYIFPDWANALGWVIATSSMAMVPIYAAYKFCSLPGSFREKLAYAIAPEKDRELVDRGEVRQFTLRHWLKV

## CCc1cc(OC)c(CC(C)N)cc1OC (stereo not drawn) [DOET, 4-ethyl-2,5-dimethoxyamphetamine]
[1]
  Human dose: 2.0 to 6.0 mg
[2]; [4]
  Ki: > 8 µM

## COc1cc(CC(C)N)c(OC)cc1C (stereo not drawn) [DOM, 4-methyl-2,5-dimethoxyamphetamine]
[1]
  Human dose: 3.0 to 10.0 mg
[3]
  EC50: > 30 µM
[2]; [4]
  Ki: > 8 µM

## CCCc1cc(OC)c(CC(C)N)cc1OC.Cl (stereo not drawn) [DOPR, 4-propyl-2,5-dimethoxyamphetamine hydrochloride]
[1]
  Human dose: 2.5 to 5.0 mg
[3]
  EC50: 10.1 µM
  Emax: 95%
[2]; [4]
  Ki: > 8 µM

## CCCCc1cc(OC)c(CC(C)N)cc1OC (stereo not drawn) [DOBU, 4-butyl-2,5-dimethoxyamphetamine]
[1]
  Human dose: Uncertain
[3]
  EC50: 10.4 µM
  Emax: 98%
[2]; [4]
  Ki: > 8 µM

## CCCCCc1cc(OC)c(CC(C)N)cc1OC (stereo not drawn) [DOAM, 4-amyl-2,5-dimethoxyamphetamine]
[1]
  Human dose: > 10 mg
[3]
  EC50: 21.8 µM
  Emax: 86%
[2]; Ki DAT, text value (range DAT and SERT 3.6–4.6)
  Ki: 3.6 µM
[2]; [4]
  Ki: 3.64 µM

## COc1ccc(OC)c(CC(C)N)c1.Cl (stereo not drawn) [2,5-DMA, 2,5-Dimethoxyamphetamine hydrochloride]
[1]
  Human dose: 80 to 160 mg
[3]
  EC50: > 30 µM
[2]; [4]
  Ki: > 8 µM
